# Results published in patent US11801246B2, “Methods of treating ischemic disease by administering an ATR kinase inhibitor” (East Tennessee State University Research Foundation, priority 2018, dated 2023).
# Entries after “also recorded” stand apart in the source; their conditions may differ. Peptide text beside a SMILES is read from it. * marks the point of attachment. Cbz = O=C(OCc1ccccc1)*; CH2F = FC*
# Legend:
# [1] = system: Terminally differentiated non-dividing SH-SY5Y cells; assay: MTT cytotoxicity (cell viability) assay; format: cell-based, human; conditions: Z-VAD-FMK combined with VE-822; glutamate
# Method: FIG. 3 depicts results of a cell viability assay (MTT) showing apoptosis is induced by Ca^2+ overload in terminally differentiated non-dividing SH-SY5Y cells but is reduced by ATR inhibition.
# Standard MTT cytotoxicity assay was carried out on terminally differentiated non-dividing SH-SY5Y cells treated with combinations of VE-822, Z-VAD-FMK, and glutamate. Cell differentiation: SH-SY5Y were grown to 60-70% confluency. Complete media was then replaced with 1% serum DMEM supplemented with freshly made all-trans retinoic acid dissolved in DMSO to a final in dish concentration of […]. This media was changed every two days following the same composition until day ten. At day ten the media was replaced with 1% serum DMEM with no further supplementation. A washout period of two days was allowed before any experiments were performed.
# [2] = system: dividing ATR+/+ and ATRflox/- HCT116 cells; assay: trypan blue cytotoxicity assay with apoptosis inhibitor pretreatment; format: cell-based, human; conditions: pretreatment with Z-VAD-FMK, then ionomycin
# Description: (§1) FIG. 4 reports data supporting the finding that necrosis is the form of cell death induced by Ca^2+ overload in dividing cells. (A) ATR^+/+ and ATR^flox/− cells were pre-treated with apoptosis inhibitor Z-VAD-FMK and then with ionomycin for cytotoxicity assay. […] As a control, camptothecin (CPT), a DNA double-strand break and typical apoptosis inducer, caused characteristic cell shrinkage and apoptotic bodies. […] (E) A549 cells were transfected with control, ATR, or ATM siRNAs for 72 hrs, then treated with ionomycin for 4 hrs. Treated cells were either analyzed by Western blot or trypan blue staining for determination of cell death. (*, p≤0.01).
# (§2) Cultured dividing ATR^+/+ and ATR^flox/− HCT116 cells were pre-treated with apoptosis inhibitor Z-VAD-FMK and then with ionomycin, followed by trypan blue cytotoxicity assay (FIG. 4A). […] As a control, CPT, a DNA double-strand break and typical apoptosis inducer, caused characteristic cell shrinkage and apoptotic bodies. […] FIG. 4E: Dividing A549 cells were transfected with control, ATR, or ATM siRNAs for 72 hrs, then treated with ionomycin for 4 hrs. Treated cells were either analyzed by Western blot or subjected to trypan blue staining for determination of cell death. (*, p≤0.01).
# dividing SH-SY5Y cells = assay: DNA damage signaling and AIF activation; format: cell-based, human; conditions: up to 8 hr, compared to controls; data not shown
# Description: A cell morphology-based assay was used to compare cells treated with ionomycin vs. the apoptosis-inducer camptothecin (CPT) (FIG. 4B, C). […] Importantly, cell death depended on NAD+ depletion and was calpain-independent; and ionomycin or glutamate induced little/no DNA damage signaling and AIF activation in dividing SH-SY5Y cells as compared to controls for up to 8 hr, although DNA damage did occur at 24 hr (data not shown).
# [3] = system: dividing ATR+/+ and ATRflox/- HCT116 cells; assay: morphologic analysis (phase-contrast microscopy) of form of cell death; format: cell-based, human
# Description: as §1, §2
# caspases = assay: Western blot of activated (cleaved) caspases; format: cell-based, human
# Description: as §1, §2
# [4] = system: HCT116 and A549 cells and primary fibroblasts; assay: flow cytometric analysis of necrotic and apoptotic cells; format: cell-based, human; conditions: data not shown
# PARP = assay: Western blot analysis of poly(ADP-ribose) (PAR) formation; format: cell-based, human; conditions: dividing A549 cells; ionomycin 10 uM
# ATR binding to PARP1 = assay: ATR co-immunoprecipitation and Western blot for PARP1 binding; format: cell-based, human; conditions: dividing A549 cells; ionomycin-treated vs control
# Method: (B) Dividing ATR^+/+ and ATR^flox/− cells were treated with ionomycin for the indicated periods. (C) Dividing A549 cells were treated with ionomycin, followed by subcellular fractionation and co-immunoprecipitation with ATR antibody and Western blot analysis for PARP1 binding.
# Since PARP hyperactivation is known to be the major cause of necrosis by Ca^2+ overload, the effects of ATR on PARsylation in dividing cells was investigated. […] ATR+/+ and ATRflox/− cells were treated with ionomycin for the indicated periods. A549 cells were treated with ionomycin, followed by fractionation and ATR co-IP and Western blot analysis for PARP1 binding.
# [5] = system: Dividing human neural SH-SY5Y cells; assay: LDH cytotoxicity assay, Ca2+ overload in dividing cells; format: cell-based; conditions: glutamate 100 uM, QA 1.0 mM or ionomycin 10 uM, VE-822 80 nM, 2 hrs
# Method: (§3) (A) Dividing human neural SH-SY5Y cells cultured in Dulbecco's modified Eagle's medium (DMEM) supplemented with 10% fetal bovine serum were treated with glutamate (100 uM), quinolinic acid (QA, 1.0 mM) or ionomycin (10 uM) in the presence and absence of ATR inhibitor VE-822 (ATRi, 80 nM) for 2 hours before cell death was measured using LDH cytotoxicity assay (LDH toxicity kit, Promega) following the vendor's procedures. (B)-(C) human ATR^+/+ and ATR^flox/− HCT116 cells and primary fibroblasts transfected with ATR siRNAs for 48 hrs were treated with ionomycin (10 uM) for the indicated periods before cell death was measured using standard trypan blue cytotoxicity assay. […] (E) Terminally differentiated non-dividing SH-SY5Y cells were treated with glutamate (100 uM), QA (1.0 mM) and ionomycin (1.0 uM)±VE-822 before cell death was measured using cytotoxicity assay. […] (G) Live cells (rounded morphology-white arrowheads) were counted in 5 fields per well. […]
# (§4) Dividing human neural SH-SY5Y cells were treated with glutamate (100 uM), quinolinic acid (QA) (1.0 mM) or ionomycin (10 uM)±ATR inhibitor VE-822 (ATRi) for 2 hrs before cell death was measured using LDH cytotoxicity assay. Human ATR^+/+ and ATR^flox/− HCT116 cells and primary fibroblasts±ATR siRNAs were treated with ionomycin (10 uM) for the indicated periods before cell death was measured using trypan blue cytotoxicity assay. […]
# myoblastic cells H9C2 = assay: hypoxia/reperfusion assay; format: cell-based, human; conditions: dividing myoblastic H9C2 cells ± VE-822; hypoxia/reperfusion incubator
# [6] = system: Terminally differentiated non-dividing SH-SY5Y cells; assay: cytotoxicity assay, Ca2+ overload in non-dividing cells; format: cell-based, human; conditions: glutamate 100 uM, QA 1.0 mM, ionomycin 1.0 uM ± VE-822
# Method: as §3, §4
# Primary cortical neurons = assay: NMDA excitotoxicity, live cell count; format: cell-based, mouse; conditions: 1 h pretreatment, then 10 uM NMDA for 8 h; p≤0.01
# C57BL/6 mice = assay: middle cerebral artery occlusion (MCAO) stroke model; format: in vivo, mouse
# Method: Adult mice injected i.p. with vehicle (A) over 3 d after a 30 min unilateral MCAO had larger infarcts (identified by GFAP+ astrocyte borders and more leukocyte (CD45) infiltration) in the brain at 7 d, than with ATR inhibitor (ATRi) VE-822 (B). (C) Quantification of infarct size as % of the contralateral side. Data are mean+SEM. N=4, 6, *p<0.05. […] (E) The number of neurons identified by the area of NeuN staining in the infarct was increased by VE-822 treatment. (F) With vehicle the striatum was essentially devoid of neurons. (G) In VE-822 treated mice rescued neurons often appeared around blood vessels (identified by αSMA). (H) Grid walk analysis of VE-822-treated and mock-treated MCAO mice.
# (A) VE-822-treated mice had fewer CD45+ infiltrating leukocytes in the infarct at 7 d after MCAO, as shown by area measurements. N=4, 6, **p<0.01. (B) Only in ATR inhibitor-treated mice, a sub-set of CD45+ cells were double-labeled with TUNEL (white arrows), which identifies DNA breaks in dying cells. (C) These cells included CD68+ microglia/macrophages as shown by split cells in an adjacent section (yellow arrows). Note the perivascular CD68+ cell at the wall of a blood vessel (BV, pink arrow). (D) Cleaved caspase-3 was present in CD45+ and CD68+ cells ([…] confocal slice). (E) The number of TUNEL+ nuclei in the cortex and striatum was higher with the ATR inhibitor treatment. (F) Some of the CD45 cells expressed ATR. (G) After MCAO, ATR expression was induced in PDGFRβ+ pericytes in the infarct. Yellow arrows indicate the cells shown by confocal on the right. Bottom confocal: ATR is seen in a CD13+ pericyte around a microvessel. […] Green arrows=healthy pericytes.
# Adult male C57BL/6 mice (10-12 weeks old; JAX Stock 000664, Jackson Labs) were anesthetized with Avertin and received a unilateral middle cerebral artery occlusion (MCAO) for 30 min as described (Kang et al., Endogenous CNTF mediates stroke-induced adult CNS neurogenesis in mice, Neurobiology of Disease 49: 68-78 (2013)). Reduced cortical blood flow was confirmed by Laser-Doppler Flowmetry and body temperature maintained during and after the MCAO. Two hours afterwards, ATR inhibitor VE-822 was injected i.p., and again at 24 and 48 h. One day before and at 3 and 7 days after MCAO, the mice were tested for impaired forepaw use in a glass cylinder test while rearing and the number of placement errors during grid walking. At 7 d mice were processed for histology of the brain as described (Kang et al., 2012, and Kang, et al., 2013), using various antibodies for cellular markers. Infarct size was determined by the area of lost cells in GFAP- and NeuN (neurons)-stained sections. Inflammatory cells were detected and identified with various antibodies and their death documented using an apoptosis detection kit and by nuclear staining.
smiles,measurement,setting,value
COC(=O)C[C@H](NC(=O)[C@H](C)NC(=O)[C@@H](NC(=O)OCc1ccccc1)C(C)C)C(=O)CF [Z-VAD-FMK] (Cbz-Val-Ala-Asp(OMe)-CH2F),"rescue from death (MTT), combination of apoptosis inhibitor and ATR inhibition",[1],do not have additive effects
same,cell death (trypan blue),[2],had no effect on cell death
N[C@@H](CCC(=O)O)C(=O)O [glutamate],DNA damage signaling and AIF activation,dividing SH-SY5Y cells,little/no
C[C@H](CCC(=O)O)C[C@H](C)C[C@H](C)C(=O)/C=C(\O)[C@H](C)C[C@H](C)C/C=C/[C@@H](C)[C@@H](O)[C@@H](C)[C@@H](O)C[C@@H]1CC[C@@](C)([C@H]2CC[C@@](C)([C@@H](C)O)O2)O1 [ionomycin],form of cell death by cell morphology,[3],caused necrosis
same,caspase activation (Western blot),caspases,absence of caspase activation
same,form of cell death by flow cytometry,[4],necrotic cell death
same,DNA damage signaling and AIF activation,dividing SH-SY5Y cells,little/no
same,PARP activity as formation of PAR polymers,PARP,increased PARP activity
same,ATR interaction with PARP1 (co-IP),ATR binding to PARP1,interacts with PARP1
"CC[C@@]1(O)C(=O)OCc2c1cc1n(c2=O)Cc2cc3ccccc3nc2-1 [CPT, camptothecin]",form of cell death by cell morphology,[3],efficiently induced apoptosis
same,caspase activation (Western blot),caspases,obvious
"CNCc1ccc(-c2cc(-c3nc(-c4ccc(S(=O)(=O)C(C)C)cc4)cnc3N)on2)cc1 [VE-822, 5-(4-(Isopropylsulfonyl)phenyl)-3-(3-(4-((methylamino)methyl)phenyl)isoxazol-5-yl)pyrazine-2-amine]",cell death caused by cellular Ca2+ overload inducers,[5],dramatically increased cell death
same,cell death,myoblastic cells H9C2,Increased death
same,cell death (rescue),[6],rescued
same,live cells after NMDA excitotoxicity,Primary cortical neurons,rescued from NMDA excitotoxicity
same,pericyte morphology in the infarct,"C57BL/6 mice; 7 d after MCAO, VTN-identified pericytes",morphology consistent with necrosis
same,number of TUNEL-positive cells in the injury site,"C57BL/6 mice; 7 d after MCAO, cortex and striatum, vs vehicle",increased
same,number of neurons in the injury site (NeuN area),"C57BL/6 mice; 7 d after MCAO, vs vehicle",increased; also recorded: greater
same,CD45-positive leukocytes in the injury site,"C57BL/6 mice; 7 d after MCAO, vs vehicle, p<0.01",fewer
same,infarct size,"C57BL/6 mice; 7 days after 30 min MCAO, i.p. at 2, 24 and 48 h, vs vehicle, p<0.05",smaller infarcts
same,"neurological function, grid-walking","C57BL/6 mice; MCAO mice, i.p. at 2, 24 and 48 h, vs mock-treated",improved neurological function
same,"neurological function, affected paw use in cylinder test","C57BL/6 mice; MCAO mice, i.p. at 2, 24 and 48 h, vs vehicle",improved neurological function
same,"neurological function, affected paw use in cylinder test","C57BL/6 mice; MCAO mice, i.p. at 2, 24 and 48 h, vs vehicle, listed as ATRi",increased to the near normal forelimb use index level
